Reference: the NIST ThermoML archive (doi:10.1016/j.jct.2016.03.038)
Numbers after ± are expanded uncertainties.

Assay: mn = molality of the nth substance listed, in mol/kg
Conditions: Liquid, isochoric method

C [methane] + CCCCCC
Conditions	mass density [kg/m3]
273.1 K, 2850 kPa, m1 = 2.157	655 ± 9
273.1 K, 3620 kPa, m1 = 2.812	648 ± 9
273.1 K, 4700 kPa, m1 = 3.805	638 ± 9
273.1 K, 5670 kPa, m1 = 4.686	628 ± 9
273.1 K, 6920 kPa, m1 = 6.031	616 ± 9
273.1 K, 7900 kPa, m1 = 7.195	604 ± 9
273.1 K, 9190 kPa, m1 = 8.724	596 ± 9
283.15 K, 2500 kPa, m1 = 1.717	650 ± 9
283.15 K, 3570 kPa, m1 = 2.568	640 ± 10
283.15 K, 4740 kPa, m1 = 3.533	632 ± 12
283.15 K, 5840 kPa, m1 = 4.499	620 ± 11
283.15 K, 7010 kPa, m1 = 5.615	610 ± 9
283.15 K, 8560 kPa, m1 = 7.345	594 ± 9
293.15 K, 2360 kPa, m1 = 1.513	643 ± 9
293.15 K, 3340 kPa, m1 = 2.229	635 ± 9
293.15 K, 4410 kPa, m1 = 3.042	627 ± 11
293.15 K, 5620 kPa, m1 = 4.008	615 ± 9
293.15 K, 6860 kPa, m1 = 5.098	604 ± 9
293.15 K, 8400 kPa, m1 = 6.638	590 ± 9
